In patent publication US20080220056A1, “Treatment for liver disease” (UNIVERSITY OF SOUTHAMPTON, priority 2002, published 2008):
Marks after values point to notes of the source that are not given here.

Columns and labels:
[1] = tested on: rat hepatic stellate cells; assay: Low molecular weight DNA fragmentation (nucleosomal ladder) in rat hepatic stellate cells; format: cell-based; settings: 37.5 μmol/L gliotoxin
[2] = tested on: human hepatic stellate cells; assay: DNA cleavage in human hepatic stellate cells (ladder, propidium iodide, TUNEL); format: cell-based; settings: human HSC, gliotoxin
Experimental: Hepatic stellate cells cultured in 35-mm diameter dishes (Greiner) were harvested, pelleted by centrifugation and DNA fragmentation determined as outlined elsewhere (Elsharkawy et al., Hepatology (1999) 30:761-769). Propidium Iodide Flow-Activated Cell Sorting Analysis Detached cells were pelleted by centrifugation, washed in PBS, and resuspended in HYPO buffer (0.1% wt/vol) Na3Citrate and 0.1% (wt/vol) Triton™ X-100 containing […] propidium iodide and incubated for 1 hour. The cells were then analyzed by fluorescence-activated cell sorter (FACS) with a Becton Dickinson (San Jose, Calif.) FACScan instrument using a 488 nm excitation wavelength with a band pass filter set at 530 nm. Attached cells were scraped in HYPO buffer after washing cells with PBS.
(§1) Rat and human hepatic stellate cells and rat liver tissue were fixed in 4% paraformaldehyde in PBS or 10% formalin in PBS, respectively, before being stained with Giemsa. DNA fragmentation was examined by labeling of 3′-OH DNA ends by the enzymatic addition of digoxygenin-labeled deoxyuridine triphosphate (dUTP) using terminal deoxynucleotidyl transferase using a kit from Boehringer essentially as described by the manufacturer. Rat liver tissue sections were pretreated with diethyl pyrocarbonate as described previously (Stahelin et al., J. Clin. Pathol. Mol. Pathol. (1998) 51:204-208) to reduce nonspecific reaction.

[3] = tested on: rat hepatic stellate cells; assay: TUNEL staining of cultured rat hepatic stellate cells; format: cell-based; settings: 1.5 μmol/L gliotoxin, two hours
Description: as §1
DNA strand breaks were also characterized by TUNEL staining. Culture-activated (14-day) rat hepatic stellate cells were treated with 0.05% (vol/vol) DMSO or 1.5 μmol/L gliotoxin for two hours and DNA strand breaks examined by TUNEL staining as outlined in Materials and Methods.

[4] = tested on: carbon tetrachloride model of liver fibrosis; assay: Carbon tetrachloride (in vivo) model of liver fibrosis, weekly gliotoxin injection; set-up: species or system rat; settings: for Liver α-sma staining (number of α-sma-positive cells) / Serum ALP / Serum ALT / Sirius red staining (mid intralobular μm): weekly gliotoxin injection 3 mg/kg i.p.
Experimental: Rats were randomly sorted into groups and treated with 2 mL CCl4:olive oil (1:1 [vol/vol])/kg body weight by intraperitoneal injection twice weekly to cause liver fibrosis. Control animals were treated with 1 mL olive oil/kg body weight by intraperitoneal injection. Gliotoxin was administered at up to 3 mg gliotoxin/kg body weight by intraperitoneal injection. Gliotoxin was dissolved in dimethyl sulfoxide (DMSO) as a vehicle, and control animals received DMSO alone.
At the required time, rats were killed by carbon dioxide asphyxiation and tissues removed for analysis. Serum was prepared and analyzed for alkaline phosphatase and alanine aminotransferase activities essentially as previously described. (Wright et al., Biochem. Pharmacol., (1992) 43:237-243) Histochemical staining of formalin-fixed liver sections with H&E, Sirius red, and immunochemical staining for α-smooth muscle actin were performed essentially as previously described (Iredale et al.,—1998—supra)

[5] = tested on: rat hepatic stellate cells; assay: Trypan blue exclusion of treated rat hepatic stellate cells; format: cell-based; settings: rat HSC; 1.5 μmol/L gliotoxin or 200 μmol/L chlorpromazine
[6] = tested on: rat hepatic stellate cells; assay: Hepatic stellate cell apoptosis by acridine orange staining and counting (cycloheximide or serum deprivation), rat cells; format: cell-based
Experimental: Human hepatic stellate cells were extracted from the margins of normal human liver resected for colonic metastatic disease as previously described (Iredale et al., Clin. Sci., (1995) 89: 75-81). Rat hepatic stellate cells were extracted from normal rat liver by Pronase and collagenase digestion and purified by centrifugal elutriation as described (Arthur et al., J. Clin. Invest., (1989) 84:1076-1085). Extracted hepatic stellate cells were cultured on plastic until they were activated to a myofibroblastic phenotype after 7 to 10 days. Human and rat hepatic stellate cells were used for experiments after activation in primary culture or before fourth passage. Cells were cultured in Dulbecco's modified Eagle's medium in the presence of 16% fetal calf serum and antibiotics.
Apoptosis of hepatic stellate cells was induced by absolute serum deprivation, cycloheximide treatment (Issa et al., Gut (2001) 48: S48-S57), or exposure to nerve growth factor as previously described (Trim et al., Am. J. Pathol., (2000) 156, 1235-1243). Hepatic stellate cells were cultured in 24-well tissue culture plates. Rat and human hepatic stellate cells were exposed to proapoptotic stimuli with and without recombinant TIMP-1 (Biogenesis, Poole, UK) and other manipulations as detailed below. Following a 4 hour incubation at 37° C., nuclear morphology was assessed by adding acridine orange to each well (final concentration 1 μg/ml) and observing the cells under blue fluorescence. The total number of apoptotic bodies was counted, and any apoptotic bodies floating in the supernatant were included by racking up the objective lens. The total number of cells per field was counted, and an apoptotic index was calculated. Each condition was performed in duplicate, and three high power fields were counted for each well. […] To examine for autocrine effects, hepatic stellate cells were incubated for 18 hours with azide-free polyclonal neutralizing antibodies to TIMP-1 and a nonimmune IgG control (Santa Cruz Biotechnology, Inc., Santa Cruz, Calif.), and responses were assessed by acridine orange staining and counting.
Apoptosis was assessed by acridine orange staining. […] A normal cell lies adjacent to the apoptotic body. This technique was used to determine the percentage of apoptotic hepatic stellate cells following exposure to cyclohexamide in the presence or absence of TIMP-1. Hepatic stellate cells were exposed to 50 μM cyclohexamide and 0, 1, 10, 100 or 200 ng/ml of TIMP-1. Cells treated with serum alone were used as controls. […] Bovine serum albumin, used as a carrier for the TIMP-1 had no antiapoptotic effect.

Question: How did the “level of DNA cleavage at high concentration versus lower concentrations” value [1] turn out when CN1C(=O)[C@]23CC4=CC=C[C@H](O)[C@H]4N2C(=O)[C@@]1(CO)SS3 [gliotoxin] was run?
Answer: reduction in the level of DNA cleavage detected

Question: What about the “DNA cleavage by propidium iodide or TUNEL staining” value [2] of the same compound?
Answer: DNA cleavage was detected

Question: What about the “cleavage of DNA to oligonucleosomal-length fragments” value [2] of the same compound?
Answer: did not cleave their DNA to oligonucleosomal-length fragments

Question: And the TUNEL staining [3]?
Answer: extensive TUNEL-positive staining

Question: What about the “liver serum enzymes caused by carbon tetrachloride treatment” value ([4]; gliotoxin administered during CCl4 treatment) of the same compound?
Answer: significantly reduces the levels of liver serum enzymes

Question: What about the “number of activated hepatic stellate cells and thickness of fibrotic bands” value ([4]; gliotoxin administered during the liver insult (CCl4)) of the same compound?
Answer: significantly reduces the number of activated hepatic stellate cells and thickness of fibrotic bands

Question: And the “hepatotoxicity of long term administration” value ([4]; weekly gliotoxin)?
Answer: no evidence that long term administration of gliotoxin is itself hepatotoxic

Question: And the “Liver α-sma staining (number of α-sma-positive cells)” value ([4]; CCl4 twice weekly 4 weeks)?
Answer: 6 ± 1.2

Question: What about the “Serum ALP” value ([4]; CCl4 twice weekly 4 weeks) of the same compound?
Answer: 429 ± 25^a μ/mL

Question: And the “Serum ALT” value ([4]; CCl4 twice weekly 4 weeks)?
Answer: 300 ± 111^b μ/mL

Question: What about the “Sirius red staining (mid intralobular μm)” value ([4]; CCl4 twice weekly 4 weeks) of the same compound?
Answer: 4.6 ± 3.1^£ μm

Question: And the “Liver α-sma staining (number of α-sma-positive cells)” value ([4]; no CCl4 (olive oil 4 weeks))?
Answer: 1.4 ± 1.38

Question: What about the “Serum ALP” value ([4]; no CCl4 (olive oil 4 weeks)) of the same compound?
Answer: 249 ± 26 μ/mL

Question: And the “Serum ALT” value ([4]; no CCl4 (olive oil 4 weeks))?
Answer: 89 ± 58 μ/mL

Question: And the “Sirius red staining (mid intralobular μm)” value ([4]; no CCl4 (olive oil 4 weeks))?
Answer: 0 μm

Question: And the “0.1% (wt/vol) trypan blue exclusion (membrane integrity)” value [5]?
Answer: detached cells that excluded 0.1% (wt/vol) trypan blue

Question: What does the source list for “TIMP-1: recombinant tissue inhibitor of matrix metalloproteases 1 (Biogenesis)”?
Answer: apoptosis induced by cycloheximide (acridine orange) ([6]; 50 μM cycloheximide, 4 hours, TIMP-1 1-200 ng/ml): significantly reduces apoptosis of activated hepatic stellate cells induced by cycloheximide exposure in a dose-dependent manner; apoptosis in serum-free conditions (acridine orange) ([6]; 24 hour incubation in serum-free conditions): identical effect; reduction in apoptotic morphology by acridine orange staining and counting ([6]; TIMP-1 10 ng/ml, cycloheximide): 30%; reduction in apoptosis by acridine orange staining and counting ([6]; TIMP-1 100 ng/ml, cycloheximide): 50%; apoptosis induced by cycloheximide (acridine orange) ([6]; rat HSC, protein at 142.5 ng/ml): inhibited apoptosis induced by cycloheximide exposure
